Results taken from patent US5475021A, “Compounds and compositions for inhibition of cyclooxygenase activity” (Vanderbilt University, priority 1993, dated 1995).
Read-outs that look alike come from different tables or passages of the source. Values belong to the compound of their own block, whether it stands above or below them.

Legend:
[1] = molecular target: T1, Holo Prostaglandin Endoperoxide Synthase (cyclooxygenase activity) (Ovis aries, UniProt P05979); experiment: Instantaneous inactivation of the cyclooxygenase activity of holo PGHS (oxygen consumption); assay type: biochemical, ram (seminal vesicles); conditions: for IC50: enzyme 0.25 μM, oxygen consumption
T1 construct: PGHS was purified from ram seminal vesicles; from tissue; host or cells: ram seminal vesicles
T1 sequence (P05979 25-600): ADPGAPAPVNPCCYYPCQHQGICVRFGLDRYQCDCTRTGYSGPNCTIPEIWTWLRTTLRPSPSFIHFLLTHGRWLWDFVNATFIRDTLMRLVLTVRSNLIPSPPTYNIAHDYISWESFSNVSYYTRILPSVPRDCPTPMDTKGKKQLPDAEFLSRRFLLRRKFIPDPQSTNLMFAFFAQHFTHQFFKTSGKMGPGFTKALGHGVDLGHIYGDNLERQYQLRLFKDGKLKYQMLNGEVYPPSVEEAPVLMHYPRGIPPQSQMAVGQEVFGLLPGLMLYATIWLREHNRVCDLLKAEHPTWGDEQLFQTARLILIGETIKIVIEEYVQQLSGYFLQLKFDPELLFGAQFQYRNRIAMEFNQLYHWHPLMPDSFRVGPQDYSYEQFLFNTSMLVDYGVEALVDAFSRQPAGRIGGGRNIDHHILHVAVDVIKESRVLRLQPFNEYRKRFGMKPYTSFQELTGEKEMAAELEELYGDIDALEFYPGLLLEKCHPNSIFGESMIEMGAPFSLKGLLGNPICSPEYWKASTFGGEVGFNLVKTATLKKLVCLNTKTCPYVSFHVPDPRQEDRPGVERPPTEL
Protocol: (§1) PGHS was purified from ram seminal vesicles.
(§2) Oxygen consumption was measured at 37° C. with a Gilson model 5/6 oxygraph equipped with a clark electrode and a thermostatted cuvette. Enzyme aliquots were added to 100 mM Tris-HCl at pH 8 containing 500 μM phenol and […] hematin. Oxygen uptake was initiated by the addition of 100 mM sodium arachidonate, and the initial reaction velocity was determined from the linear portion of the oxygen uptake curve.
The reaction mixture was allowed to reconstitute for 1 min and then varying inhibitor concentration were added to the reaction mixture. As quickly as possible, the cyclooxygenase reaction was initiated by the addition of 100 mM sodium arachidonate. […]

[2] = molecular target: T2, holo PGHS (cyclooxygenase activity) (Ovis aries, UniProt P05979); experiment: Time dependent inactivation of cyclooxygenase activity; assay type: biochemical, ram (seminal vesicles); conditions: enzyme 0.25 μM; for Oxygen Consumption, T = 0: control 221; for Oxygen Consumption, T = 30: T = 30 (min), control 210; for Oxygen Consumption, T = 60: control 211
T2 sequence (P05979 25-600): T1 sequence (P05979 25-600)
Protocol: as §1, §2
A reaction mixture containing a 100 fold excess of the inhibitor(versus the enzyme concentration) (from a 10 mM stock in DMSO) and holo PGHS (5.3 mg/mL) (reconstituted with one equivalent of hematin) was incubated in a eppendorf tube at room temperature. Aliquots of the incubation mixture, at time intervals of t=0, 30 and 60 min were added to the oxygraph cell already containing 1.25 mL Tris HCL, 100 mM, pH 8, at 37° C., 500 μM phenol and 25 μL of 50 μM hematin. The cyclooxygenase reaction was initiated by the addition of 13 μL of 10 mM sodiumarachidonate in 10% MeOH (final concentration of AA was 100 μM). The oxygen consumption was measured from the linear portion of the O2 uptake curve.

holo PGHS [3] = conditions: Ser 530 in sheep (Ser 529 in humans); cited from earlier work
[4] = molecular target: T3, holo PGHS (peroxidase activity) (Ovis aries, UniProt P05979); experiment: Instantaneous inactivation of peroxidase activity (guaiacol oxidation); assay type: biochemical, ram (seminal vesicles); conditions: for IC50: enzyme 0.25 μM
T3 construct: PGHS was purified from ram seminal vesicles; from tissue; host or cells: ram seminal vesicles
T3 sequence (P05979 25-600): T1 sequence (P05979 25-600)
Protocol: as §1
Enzyme aliquots were added to 100 mM Tris HCl (pH 8) containing […] heme, 500 μM guaiacol in disposible cuvettes. Reaction was initiated by the addition of 400 μM H2 O2.
This reaction mixture was treated with a given concentration of the inhibitor and then as quickly as possible the peroxidase reaction was initiated by the addition of 0.4 mM H2 O2. The initial rates of oxidation were measured for 20 sec at a repeat rate of 1 second. (Table 4)

[5] = molecular target: T4, PGHS (cyclooxygenase activity) (Ovis aries, UniProt P05979); experiment: IC50 for inactivation of cyclooxygenase activity of PGHS after 30 min incubation; assay type: biochemical, ram (seminal vesicles)
T4 construct: PGHS was purified from ram seminal vesicles; from tissue; host or cells: ram seminal vesicles
T4 sequence (P05979 25-600): T1 sequence (P05979 25-600)
Protocol: as §1, §2
Varying inhibitor concentrations were incubated with reconstituted holo PGHS (final concentration in the oxygraph cell was 250 nM) at room temperature for 30 min. Aliquots of this incubation mixture were added to the oxygraph cell containing 100 mM Tris-HCl at pH 8 with 500 μm of phenol and 1 μM hematin. The reaction mixture was allowed to reconstitute for 1 min and the cyclooxygenase reaction was initiated by the addition of 100 mM sodium arachidonate. (Table 1)
In all experiments the enzyme concentrations was 0.25 μM.

[6] = test system: PGHS (cyclooxygenase activity); experiment: Inactivation of cyclooxygenase activity of PGHS by cysteine specific reagents; assay type: biochemical
Description: (§3) Thiyl radicals (as reviewed in Shoeneich, 1992) can be potentially generated from cysteines present in PGHS, in the catabolism of arachidonic acid. […] Site-directed mutagenesis experiments to mutate these cysteines to serines and their corresponding effect on prostaglandin biosynthesis are presently being carried out.

[7] = test system: PGHS (peroxidase activity); experiment: Inactivation of peroxidase activity of PGHS by cysteine specific reagents; assay type: biochemical
Description: as §3

holo PGHS [8] = experiment: Inactivation of holo PGHS; assay type: biochemical
Description: as §3

mouse = conditions: doses much below those required by indomethacin; cited from earlier work
guinea pigs = conditions: doses much below those required by indomethacin; cited from earlier work
cyclooxygenase = conditions: cited from earlier work
[9] = molecular target: T5, cyclooxygenase activity of PGHS (Ovis aries, UniProt P05979); experiment: Inhibition of cyclooxygenase activity of PGHS by analog 2; assay type: biochemical
T5 sequence (P05979 25-600): T1 sequence (P05979 25-600)
Description: Preliminary structure-activity studies on compounds with structural similarity indicate the position of oxygen on the omega side chain and the stereochemistry on the oxobicycloheptane ring as the governing factors in the inhibition.
The basis for the inhibitory activity of a given NSAID depends on the interaction of the NSAID with the active site of the enzyme it inhibits. A working model for the active site of fatty acid cyclooxygenase with the pattern recognition of known inhibitors as well as conformational minimizations of the natural substrate AA has been constructed. The Squibb group recently described a novel series of 7-oxabicycloheptylpro stanoic acid derivatives that inhibit AA-induced platelet aggregation and AA oxygenation by platelet and bovine seminal microsomes. […]

PGHS protein = experiment: Mechanistic studies: conformational change in the PGHS protein
[10] = cited from earlier work
[11] = enzyme 0.25 μM, 30 min incubation with inhibitor, read-out: IC50 for inactivation of cyclooxygenase activity of PGHS
[12] = read-out: IC50 (aspirin analogs 44 and 45)

Compound: 2-[2-(N-Maleimidoethoxy)]benzoic acid [Compound 7]
IC50 [1]: 140 µM
Oxygen Consumption, T = 0 ([2]; inhibitor 16 μM): 180 µM/min
Oxygen Consumption, T = 30 ([2]; inhibitor 16 μM): 27 µM/min
Oxygen Consumption, T = 60 (symbol) ([2]; inhibitor 16 μM, T = 60 (min)): --b

Compound: CC(=O)Oc1ccccc1C(=O)O [Aspirin]
acylation of Ser 530 of PGHS (holo PGHS [3]): inactivates the cyclooxygenase activity of holo PGHS by regioselective acylation of Ser 530

IC50 [1]: > 800 µM
Oxygen Consumption, T = 0 ([2]; inhibitor 16 μM): 212 µM/min
Oxygen Consumption, T = 30 ([2]; inhibitor 16 μM): 205 µM/min
Oxygen Consumption, T = 60 ([2]; inhibitor 16 μM, T = 60 (min)): 204 µM/min
IC50 [4]: > 800 µM
Compound: O=C(O)CCCCCN1C(=O)C=CC1=O [Compound 1, N-6-(Maleimido)hexanoic acid]

IC50 [1]: 570 µM
Oxygen Consumption, T = 0 ([2]; inhibitor 16 μM): 195 µM/min
Oxygen Consumption, T = 30 ([2]; inhibitor 16 μM): 142 µM/min
Oxygen Consumption, T = 60 ([2]; inhibitor 16 μM, T = 60 (min)): 106 µM/min
IC50 [4]: > 800 µM
remaining activity at 800 µM ([4]; pH 8, at 800 μM): 81%
Compound: O=C(O)CCCCCCN1C(=O)C=CC1=O [Compound 2, N-7-(Maleimido)heptanoic acid]

IC50 [1]: 26 µM
Oxygen Consumption, T = 0 ([2]; inhibitor 10 μM): 203 µM/min
Oxygen Consumption, T = 30 ([2]; inhibitor 10 μM): 121 µM/min
Oxygen Consumption, T = 60 ([2]; inhibitor 10 μM, T = 60 (min)): 68 µM/min
Compound: O=C(O)CCCCCCCCN1C(=O)C=CC1=O [Compound 4, 9-(Maleimido)-1-nonanoic acid]

instantaneous inactivation of cyclooxygenase activity [1]: failure
Compound: O=C(O)c1ccccc1OCCN1C(=O)C=CC1=O [Compound 6 (Example 1), 2-[2-(N-Maleimidoethoxy)]benzoic acid]

IC50 [5, 11]: 250 µM
Compound: CCCCCCCCN1C(=O)C=CC1=O [Compound 8]

IC50 [5, 11]: 50 µM
Compound: CCCCCCCCCN1C(=O)C=CC1=O [Compound 9]

IC50 [5, 11]: 27 µM
Compound: CCCCCCCCCCN1C(=O)C=CC1=O [Compound 10]

IC50 [5, 11]: 9 µM
Compound: Cc1ccccc1CN1C(=O)C=CC1=O [Compound 11]

IC50 [5, 11]: 12 µM
Compound: O=C(O)c1ccc(CN2C(=O)C=CC2=O)cc1 [Compound 12]

IC50 [5, 11]: 40 µM
Compound: O=C(O)c1ccccc1OCCN1C(=O)C=CC1=O [Compound 13]

instantaneous inactivation of cyclooxygenase activity [1]: did not inactivate PGHS
Compound: O=C(O)CCCCCCCN1C(=O)CCC1=O [Compound 39, N-8-(Succinimido)octanoic acid]
inhibition of the enzyme at 500 fold excess ([1]; 500 fold excess): did not inhibit the enzyme, even at a 500 fold excess
instantaneous inactivation of cyclooxygenase activity ([1]; listed as corresponding succinimide): did not display any inactivation at analogous concentrations and at higher concentrations

Inhibition of cyclooxygenase at 200 μM (footnote a, Table 2) ([5]; 200 μM, 30 min incubation): No significant inhibition observed
IC50 [5, 12]: > 200 µM
Compound: CC(=O)Oc1cc(N2C(=O)C=CC2=O)ccc1C(=O)O [Compound 44]

IC50 [5, 12]: 29 µM
Compound: CC(=O)Oc1ccc(N2C(=O)C=CC2=O)cc1C(=O)O [Compound 45]

Compound: CC(=O)n1ccnc1 [N-acetylimidazole]
acylation of Ser 530 of PGHS (holo PGHS [3]): did not result in regioselective acetylation

Compound: CCN1C(=O)C=CC1=O [NEM, N-ethylmaleimide]
inactivation of cyclooxygenase activity by cysteine specific reagent [6]: time- and concentration-dependent inactivation
inactivation of peroxidase activity by cysteine specific reagent [7]: time- and concentration-dependent inactivation
inactivation of holo PGHS (holo PGHS [8]): inactivates holo

Compound: CCCCCCOCC1C2CCC(O2)C1CC=CCCCC(=O)O (centres unmarked) [analog 1]
prevention of AA-induced sudden death (mouse): prevents AA-induced sudden death in the mouse
prevention of AA-induced changes in lung mechanics (guinea pigs): AA-induced changes in lung mechanics in guinea pigs at doses much below those required for similar effects by indomethacin
inhibition of cyclooxygenase activity in vitro (cyclooxygenase): inhibition of cyclooxygenase activity in vitro

time-dependent inhibition of cyclooxygenase activity [9]: potent time-dependent inhibitor
IC50 ([9]; enzyme concentration 140 nM): 0.08 µM
IC100 ([9]; enzyme concentration 140 nM, read-out: concentration with complete inhibition): 0.15 µM
Compound: CCCCCCOCC1C2CCC(O2)C1CC=CCCC(C)(C)C(=O)O (centres unmarked) [analog 2]
conformational change in the PGHS protein (PGHS protein): induces a conformational change in the PGHS protein
inhibition of cyclooxygenase activity in vitro (cyclooxygenase): displays the same activities as analog 1
duration of action in vivo, relative to analog 1 [10]: longer duration of action in vivo

IC50 [1]: 37 µM
Oxygen Consumption, T = 0 ([2]; inhibitor 10 μM): 207 µM/min
Oxygen Consumption, T = 30 ([2]; inhibitor 10 μM): 178 µM/min
Oxygen Consumption, T = 60 ([2]; inhibitor 10 μM, T = 60 (min)): 81 µM/min
Compound: N-11-(Maleimido)undecanoic acid [Compound 5]
